PMC10784468 (Nature Communications, 2024)

Key:
ζ-potential in PBS = assay type: physicochemical; settings: 40 μM in PBS, pH 7.4; mean of n = 3
Method: Supplementary Fig. 12. ζ-potential change of Gi-F-CAA (40 μM) in PBS (0.01 M, pH 7.4 or 6.5) (n=3
experimental repeats). Experiment was independently repeated three times with similar results. Values are
(1 picture or pasted object on this page, not shown here)
Supplementary Fig. 13. ζ-potential of NGi-F-CAA, Gi-F and Gi-F-SA (pH 7.4) (40 μM) in PBS (n=3

EJ xenograft tumor = test: Penetration assay in tumor frozen sections (Cy labeled); settings: mouse, in vivo, iv, 8 mg/kg
Method: Firstly, EJ xenograft mice were administrated with Cy labeled Gi-F (8 mg/kg in 100 μL PBS) and Cy labeled Gi-F-CAA (8 mg/kg in 100 μL PBS) by intravenous injection. Afterward, EJ tumor tissues were entirely resected and protected from light. Subsequently, the tumor tissues were fixed with optimum cutting temperature (OCT) compound for 12 h at −20 °C avoiding light. Finally, the fixed tumor tissues were cut into sections and immediately observed with UltraVIEW VoX.

EJ cells = test: Cytotoxicity assay (CCK-8) on EJ cells; settings: pH 7.4
Method: Initially, EJ cells were seeded into 96 well plates at a density of 5 × 10^3 per well and incubated in a CO2 incubator overnight at 37 °C. Subsequently, Gi-F (pH = 7.4), Gi-F-SA (pH = 7.4), NGi-F-CAA (pH = 7.4), NGi-F-CAA (pH = 6.5), Gi-F-CAA (pH = 7.4) and Gi-F-CAA (pH = 6.5) at different concentrations (1, 2, 4, 8, 16, 32, 64, 128 and 256 μM) was added to the cells and further incubated for 48 h. Finally, the cell viability rate was calculated by (Sample wells-Blank wells)/(Control wells-Blank wells) × 100%.

EJ xenograft tumors = test: In vivo antitumor evaluation in EJ xenograft model (tumor volume, tumor weight, body weight); settings: 8 mg/kg i.v.; for mean tumor volume at 18 days post injection: six injections at 2-days intervals, n = 6; for Tumor weight: six injections, 18 days
Method: Female BALB/c nude mice (~8 weeks, 18 g) were subcutaneously inoculated with 5 × 10^6 EJ cells resuspended in Matrigel. When the tumor size reached about 100 mm^3, EJ tumor-bearing mice were randomly divided into four groups and administrated with PBS, Gi-F (8 mg/kg in 100 μL PBS), Gi-F-SA (8 mg/kg in 100 μL PBS) and Gi-F-CAA (8 mg/kg in 100 μL PBS) by intravenous injection at 2-days intervals for six times. Individual tumor volume and bodyweight of mouse after different treatment was collected at 2-days intervals for analysis. Mice were killed at 18 days post treatment unless endpoints were exceeded. Moreover, tumors from all groups were harvested under euthanasia and weighed for analysis at the end of treatment.

EJ tumor tissues [1] = test: Tumor GSH content detection; assay type: in vivo, BALB/c nude mice; settings: tumor
Method: (§1) EJ tumor tissues were collected under euthanasia at the end of treatment and washed with PBS for 3 times. Afterwards, the tumor lysates were collected by centrifugation at 8000 rpm for 10 min at 4 °C after lysed with Frozen Type Tissuelyser. Finally, the GSH contents were measured with a GSH Assay Kit based on the manufacturer’s instructions.

EJ tumor tissues [2] = test: Tumor MDA content detection; assay type: in vivo, BALB/c nude mice; settings: tumor
Method: as §1, with “8000 g” for “8000 rpm”, “the MDA” for “the GSH”, “measured by thiobarbituric acid (TBA) reaction” for “measured”, “a Malondialdehyde (MDA)” for “a GSH”, “Kit (Solarbio Science & Technology Co., Ltd., China, BC0025)” for “Kit”

GPX4 [3] = target: T1, GPX4 (Homo sapiens, UniProt P36969); test: Tumor GPX4 activity detection; assay type: in vivo, BALB/c nude mice; design: from tissue; host or cells: EJ xenograft tumour tissue from BALB/c nude mice
T1 sequence (P36969 1-197): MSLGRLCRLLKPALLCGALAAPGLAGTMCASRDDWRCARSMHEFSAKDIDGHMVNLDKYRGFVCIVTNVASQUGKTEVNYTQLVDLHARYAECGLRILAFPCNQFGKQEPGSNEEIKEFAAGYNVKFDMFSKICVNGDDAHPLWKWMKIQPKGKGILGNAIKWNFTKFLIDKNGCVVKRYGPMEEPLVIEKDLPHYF
Method: as §1, with “5000” for “8000”, “by freeze-thaw treatment.” for “with Frozen Type Tissuelyser.”, “GPX4 activity” for “GSH contents”, “GPX” for “GSH”

GPX4 [4] = target: T1, GPX4; test: Intracellular GPX4 activity detection; assay type: cell-based; design: endogenous in cells; host or cells: EJ bladder cancer cells
Method: Initially, EJ cells (5 × 10^5) were cultured in 6-well plate with a CO2 incubator overnight at 37 °C. […] Next, EJ cells were collected and washed with PBS for 3 times. Afterwards, the cell lysates were collected by centrifugation at 5000 rpm for 10 min at 4 °C after ultrasonic lysis in an ice bath. Finally, the GPX4 activity were measured with a GPX Assay Kit based on the manufacturer’s instructions.

Substance | Zeta potential (mV) (ζ-potential in PBS) | tumor penetration, fluorescence distribution in tumor sections (EJ xenograft tumor) | IC50 (EJ cells) [µM] | mean tumor volume at 18 days post injection (EJ xenograft tumors) [mm^3] | Tumor weight (EJ xenograft tumors; mice 1) [g] | Tumor weight (EJ xenograft tumors; mice 2) [g] | Tumor weight (EJ xenograft tumors; mice 3) [g] | Tumor weight (EJ xenograft tumors; mice 4) [g] | Tumor weight (EJ xenograft tumors; mice 5) [g] | Tumor weight (EJ xenograft tumors; mice 6) [g] | Relative content of GSH (EJ tumor tissues [1]; mice 1) | Relative content of GSH (EJ tumor tissues [1]; mice 2) | Relative content of GSH (EJ tumor tissues [1]; mice 3) | Relative content of GSH (EJ tumor tissues [1]; mice 4) | Relative content of GSH (EJ tumor tissues [1]; mice 5) | Relative content of GSH (EJ tumor tissues [1]; mice 6) | Relative content of MDA (EJ tumor tissues [2]; mice 1) | Relative content of MDA (EJ tumor tissues [2]; mice 2) | Relative content of MDA (EJ tumor tissues [2]; mice 3) | Relative content of MDA (EJ tumor tissues [2]; mice 4) | also measured
FeTCPP-LKLKLKGACNWLPLYPCPV (disulfide) [Gi-F] | -8.4 | only distributed around the periphery of tumor tissues | 11.3 | 1426 | 1.433 | 1.25 | 1.087 | 1.055 | 0.939 | 1.259 | 0.74 | 0.713 | 0.713 | 0.681 | 0.676 | 0.763 | 2.1 | 2.6 | 2.35 | 2.5 | Relative content of MDA (EJ tumor tissues [2]; mice 5): 2.3; Relative content of MDA (EJ tumor tissues [2]; mice 6): 2.45; Relative activity of GPX4 (GPX4 [3]; mice 1): 0.57; Relative activity of GPX4 (GPX4 [3]; mice 2): 0.52; Relative activity of GPX4 (GPX4 [3]; mice 3): 0.57; Relative activity of GPX4 (GPX4 [3]; mice 4): 0.57; Relative activity of GPX4 (GPX4 [3]; mice 5): 0.52; Relative activity of GPX4 (GPX4 [3]; mice 6): 0.57
FeTCPP-LKLKLK(SA)GACNWLPLYPCPV (disulfide) [Gi-F-SA, control conjugate decorated with non-sensitive succinic anhydride (SA) moieties] | -21.4 | penetrate into the tumor interior, while in a week fluorescence intensity | 40 | 1204 | 1.819 | 1.454 | 1.391 | 1.595 | 1.425 | 1.689 | 0.8 | 0.832 | 0.874 | 0.837 | 0.887 | 0.74 | 1.35 | 1.45 | 1.2 | 1.75 | Relative content of MDA (EJ tumor tissues [2]; mice 5): 1.45; Relative content of MDA (EJ tumor tissues [2]; mice 6): 1.3; Relative activity of GPX4 (GPX4 [4]; EJ cells, 8 h, pH 7.4, PBS group normalized as 1, #1): 0.62; Relative activity of GPX4 (GPX4 [4]; EJ cells, 8 h, pH 7.4, PBS group normalized as 1, #2): 0.59; Relative activity of GPX4 (GPX4 [4]; EJ cells, 8 h, pH 7.4, PBS group normalized as 1, #3): 0.73; Relative activity of GPX4 (GPX4 [4]; pH=7.4, replicate #1): 0.61; Relative activity of GPX4 (GPX4 [4]; pH=7.4, replicate #2): 0.62; Relative activity of GPX4 (GPX4 [4]; pH=7.4, replicate #3): 0.66; Relative activity of GPX4 (GPX4 [3]; mice 1): 0.79; Relative activity of GPX4 (GPX4 [3]; mice 2): 0.8; Relative activity of GPX4 (GPX4 [3]; mice 3): 0.76; Relative activity of GPX4 (GPX4 [3]; mice 4): 0.79; Relative activity of GPX4 (GPX4 [3]; mice 5): 0.8; Relative activity of GPX4 (GPX4 [3]; mice 6): 0.76
